Data on 11 compounds can be found in patent US20190352276A1, “INHIBITORS OF BRUTON'S TYROSINE KINASE” (Joint Stock Company "Biocad", priority 2016, published 2019).

Data set [1] in a line: Permeability through the monolayer of Caco-2 cells. It counts as in vitro ADME. Conditions: human; for Papp A→B at 2 h, 10 μM / Papp B→A at 2 h, 10 μM: 2 h at 37° C.; for efflux ratio at 2 h, 10 μM: read-out: efflux (Papp B-A/Papp A-B). The gist of the method:
(§1)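 Caco-2 monolayers grown 21 days on 0.4 μm transwell filters, integrity checked with Lucifer Yellow. Compounds at 10 μM were added apically at pH 6.5 (A→B) or basolaterally at pH 7.4 with 1% BSA (B→A) and sampled after 2 h. Concentrations by HPLC; Papp calculated, efflux ratio as Papp B-A/Papp A-B.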

Data set [2] in a line: Stability in human blood plasma. To be noted: 10 μM in pooled human blood plasma, incubated 4 hours at 37° C.
Protocol: To assess the blood plasma stability of the drug candidates, we used pooled human blood plasma taken from ten healthy donors. The initial solution (10 Mm in DMSO) was diluted with pooled blood plasma to 10 μM (test solution). The test solution had been incubated for 4 hours in a dry block heater at 37° C. We determined peak areas of the compounds corresponding to the start of the test (before incubating) and the end of the test (after incubating in a dry block heater at 37° C.) by HPLC using Agilent1200 chromatograph (Agilent, USA) with preliminary protein precipitation with acetonitrile. We used gradient elution (1 mL/min flow rate). We determined amount of substance in the sample in % after incubation.
We evaluated the stability of the compounds.
The test system of another data set is Caco-2 cells. Briefly: Permeability through the monolayer of Caco-2 cells. The format is in vitro ADME. The gist of the method: as §1

Consider `C=CC(=O)N1CCC[C@@H](n2nc(-c3ccc(C(=O)Nc4cc(C(F)(F)F)ccn4)cc3)c3c(N)ncc(Cl)c32)C1` [BCD-BTK-251, (R)-4-(1-(1-acryloylpiperidin-3-yl)-4-amino-7-chloro-1H-pyrazolo[4,3-c]pyridin-3-yl)-N-(4-(trifluoromethyl)pyridin-2-yl)benzamide], for which, in data set [1], the Papp A→B at 2 h, 10 μM amounted to 8.3 ×10⁻⁶ cm/s; the Papp B→A at 2 h, 10 μM amounted to 1.5 ×10⁻⁶ cm/s; the efflux ratio at 2 h, 10 μM was determined as 0.2.

For `C=CC(=O)N1CCC[C@@H](n2nc(-c3ccc(Oc4ccncc4)cc3)c3c(N)ncc(OC)c32)C1` [BCD-BTK-239, (R)-1-(1-acryloylpiperidin-3-yl)-4-amine-7-methoxy-3-(4-(pyridin-4-yloxy)phenyl)-1H-pyrazolo[4,3-c]pyridine], in data set [2], the “Amount of substance in the sample, % (stability in human blood plasma)” value (shortened to “Amount of substance in the sample, %”) was 80.3%.

On to `C=CC(=O)N1CCC[C@@H](n2nc(-c3ccc(Oc4cccnc4C#N)cc3)c3cncc(F)c32)C1` [BCD-BTK-230, (R)-3-(4-(1-(1-acryloylpiperidin-3-yl)-7-fluoro-1H-pyrazolo[4,3-c]pyridin-3-yl)phenoxy)picolinonitrile], for which the “Amount of substance in the sample, %” value in data set [2] turned out to be 93.3%. Moreover, in data set [1], the Papp A→B at 2 h, 10 μM stood at 26.5 ×10⁻⁶ cm/s; the Papp B→A at 2 h, 10 μM came out at 2.68 ×10⁻⁶ cm/s; the efflux ratio at 2 h, 10 μM came to 0.1.

In data set [1], `C=CC(=O)N1CCC[C@@H](n2nc(-c3cnc(C(=O)Nc4cc(C(F)(F)CCC)ccn4)nc3)c3cncc(Cl)c32)C1` [BCD-BTK-292, (R)-5-(1-(1-acryloylpiperidin-3-yl)-7-chloro-1H-pyrazolo[4,3-c]pyridin-3-yl)-N-(4-(1,1-difluorobutyl)pyridin-2-yl)pyrimidine-2-carboxamide] yielded a Papp A→B at 2 h, 10 μM of 11.6 ×10⁻⁶ cm/s and a Papp B→A at 2 h, 10 μM of 0.07 ×10⁻⁶ cm/s. For the same compound, the “efflux (Papp B-A/Papp A-B)” value in the data set with Caco-2 cells amounted to 0.006.

For `C=CC(=O)N1CCC[C@@H](n2nc(-c3ccc(Oc4cccnc4C(N)=O)cc3)c3cncc(Cl)c32)C1` [BCD-BTK-220, 3-(4-{7-chloro-1-[(3R)-1-(prop-2-enoyl)piperidin-3-yl]-1H-pyrazolo[4,3-c]pyridin-3-yl}phenoxy)pyridine-2-carboxamide], in data set [2], the “Amount of substance in the sample, %” value is 90.2%.

For the compound `C=CC(=O)N1CCC[C@@H](n2nc(-c3ccc(Oc4ccncc4)cc3)c3cncc(Cl)c32)C1` [BCD-BTK-125, (R)-1-(1-acryloylpiperidin-3-yl)-7-chloro-3-(4-(pyridin-4-yloxy)phenyl)-1H-pyrazolo[4,3-c]pyridine], in data set [1], the Papp A→B at 2 h, 10 μM was determined as 21 ×10⁻⁶ cm/s; the apparent permeability from basolateral to apical (Papp B→A) at 2 h, 10 μM is 13.2 ×10⁻⁶ cm/s; the efflux ratio at 2 h, 10 μM amounted to 0.6.

In data set [1], `C=CC(=O)N1CCC[C@@H](n2nc(-c3ccc(Oc4ccncc4C#N)cc3)c3cncc(Cl)c32)C1` [BCD-BTK-202, (R)-4-(4-(1-(1-acryloylpiperidin-3-yl)-7-chloro-1H-pyrazolo[4,3-c]pyridin-3-yl)phenoxy)nicotinonitrile] came in with a Papp A→B at 2 h, 10 μM of 20.3 ×10⁻⁶ cm/s and a Papp B→A at 2 h, 10 μM of 1.91 ×10⁻⁶ cm/s. In the data set with Caco-2 cells, the “efflux (Papp B-A/Papp A-B)” value was determined as 0.09.

In the case of `C=CC(=O)N1CCC[C@@H](n2nc(-c3ccc(Oc4ccncc4)cc3)c3c(N)ncc(Cl)c32)C1` [BCD-BTK-139, (R)-1-(1-acryloylpiperidin-3-yl)-7-chloro-3-(4-(pyridin-4-yloxy)phenyl)-1H-pyrazolo[4,3-c]pyridin-4-amine], in data set [1], the Papp A→B at 2 h, 10 μM worked out at 52.2 ×10⁻⁶ cm/s; the Papp B→A at 2 h, 10 μM was 5.7 ×10⁻⁶ cm/s; the efflux ratio at 2 h, 10 μM was 0.1.

For the compound `C=CC(=O)N1CCC[C@@H](n2nc(-c3ccc(C(=O)Nc4ccccn4)cc3)c3c(N)nccc32)C1` [BCD-BTK-242, (R)-4-(1-(1-acryloylpiperidin-3-yl)-4-amino-1H-pyrazolo[4,3-c]pyridin-3-yl)-N-(pyridin-2-yl)benzamide], the “Amount of substance in the sample, %” value in data set [2] came to 100.0%.

With `C=CC(=O)N1CCC[C@@H](n2nc(-c3ccc(C(=O)Nc4ccccn4)cc3)c3c(N)ncc(C#N)c32)C1` [BCD-BTK-234, (R)-4-(1-(1-acryloylpiperidin-3-yl)-4-amino-7-cyano-1H-pyrazolo[4,3-c]pyridin-3-yl)-N-(pyridine-2-yl)benzamide], the “Amount of substance in the sample, %” value in data set [2] is given as 83.5%. Besides, in data set [1], the Papp A→B at 2 h, 10 μM turned out to be 8.2 ×10⁻⁶ cm/s; the Papp B→A at 2 h, 10 μM is 9.2 ×10⁻⁶ cm/s; the efflux ratio at 2 h, 10 μM worked out at 1.1.

With `C=CC(=O)N1CCC[C@@H](n2nc(-c3ccc(C(=O)Nc4ccccn4)cc3)c3c(N)ncc(OC)c32)C1` [BCD-BTK-240, (R)-4-(1-(1-acryloylpiperidin-3-yl)-4-amino-7-methoxy-1H-pyrazolo[4,3-c]pyridin-3-yl)-N-(pyridin-2-yl)benzamide], in data set [2], the “Amount of substance in the sample, %” value is listed as 100.0%. Moreover, in data set [1], the apical-to-basolateral permeability (Papp A→B) at 2 h, 10 μM worked out at 18.2 ×10⁻⁶ cm/s; the Papp B→A at 2 h, 10 μM was 11.1 ×10⁻⁶ cm/s; the efflux ratio at 2 h, 10 μM was determined as 0.61.
